# From patent US20110014164A1, “EFFICIENT INDUCTION OF PLURIPOTENT STEM CELLS USING SMALL MOLECULE COMPOUNDS” (PRESIDENT AND FELLOWS OF HARVARD COLLEGE, priority 2008, published 2011)
# Tests used:
# [1] = system: human BJ and NHDF cells infected by Oct4 and Sox2; assay: iPS induction in 2-factor (Oct4, Sox2) infected human fibroblasts; format: cell-based; conditions: both with VPA treatment
# Description: b. In the published reprogramming protocol, infected human fibroblasts are typically cultured in fibroblast media first, then reseeded on feeders and switched to hES cell media about a week post-infection. In the modified protocol, human fibroblasts were replated immediately after infection, treated with VPA in hES media, and subsequently cultured in hES media.
# c. The efficiency of iPS colony induction by 3 factors (Oct4, Sox2 and Klf4) and 2 factors (Oct4 and Sox2) with VPA treatment are plotted. Each dot represents one experiment; each bar represents the average for each condition.
# Encouraged by the more efficient 3-factor reprogramming with VPA treatment, we explored the possibility of eliminating some of the transcription factors. The modified induction method with VPA treatment (FIG. 9b) was applied to human BJ and NHDF cells infected by different 2-factor combinations, and AP^+ iPS colonies were identified about 1 month post-infection in fibroblasts infected by Oct4 and Sox2. Karyotypically normal iPS cell lines (Table 2) were established from 2-factor infected human fibroblasts. On average, between 1 and 5 iPS lines were successfully established out of every 100,000 BJ or NHDF cells infected by Oct4 and Sox2 (FIG. 9c). […] The efficiency of reprogramming by 2 factors, however, was ˜100 fold lower than that by 3 factors both with VPA treatment. […]
# [2] = system: iPS-m cell lines; assay: Karyotype (chromosome) analysis of iPS-m cell lines induced by VPA treatment; format: cell-based, mouse
# Description: Supplementary FIG. 4. Chromosome analysis of iPS-m cells. […] Shown here is a representative chromosome analysis image from iPS-m84.
# (§1) Therefore, VPA partially reprograms MEFs towards more ES cell-like.
# [3] = system: uninfected MEFs; assay: Oct4-GFP induction in uninfected MEFs; format: cell-based, mouse; conditions: VPA treatment alone on uninfected MEFs
# Description: as §1
# [4] = system: MEFs infected with Oct4, Sox2, Klf4 (but no c-Myc); assay: Reprogramming efficiency of 3-factor infected Oct4-GFP MEFs, FACS analysis; format: cell-based, mouse; conditions: 2 mM for a week; FACS 10 days post-infection; 3-factor infected MEFs
# Procedure: FIG. 2(a) MEFs infected with Oct4, Sox2, Klf4 (but no c-Myc) were treated with 5′-azaC (2 μM) or VPA (2 mM) for a week, the percentage of Oct4-GFP positive cells induced was measured through FACS analysis at 10 days post-infection, and compared to infected MEFs without treatment. n=4 for each condition.
# Retroviral introduction of c-Myc could cause tumorigenecity in cells derived from the iPS cells thus generated^2. […] Similar low efficiency was also reported for induction of iPS cells from mouse fibroblasts without c-Myc^24. We tested whether treating the cells with 5′-azaC or VPA improves the efficiency of iPS colony formation without the need for c-Myc. MEFs were first infected with Oct4, Sox2 and Klf4, then treated with 5′-azaC or VPA for a week starting 1 day post-infection. […] Consistent with the FACS data, a 30-40 fold increase of GFP positive colonies was observed compared to control MEFs without treatment (FIG. 2c). This allowed for picking of iPS colonies within two weeks post-infection, sooner than the typical ˜30 days post-infection or later without chemical treatment^13, 24.
# Moloney-based retroviral vector (pMXs) containing the murine complementary DNAs of Oct4, Sox2, c-Myc, and Klf4 were obtained from Addgene^1. […]
structure (smiles),measurement,setting,value
"CCCC(CCC)C(=O)O [VPA, valproic acid]",efficiency of reprogramming by 2 factors lower than by 3 factors,[1],~100 fold
same,iPS-m cell lines with normal karyotypes,"[2]; iPS-m81, 82, 83 and 84 induced by VPA treatment",Three out of four
same,genetic changes at the level of chromosomal abnormalities,[2]; iPS-m cell lines induced with VPA (Table 1),Nor does VPA treatment cause detectable genetic changes
same,induction of Oct4-GFP positive cells,[3],does not induce Oct4-GFP positive cells
same,improvement of reprogramming efficiency,[4],50 fold
